Source: US9879058B2, “Use of compounds that selectively modulate astrocytic release of substances through hemichannels of connexins and pannexins, without influencing gap junctions, for the treatment of psychiatric disorders” (Universidad Andres Bello, priority 2012, dated 2018)
Entries after “also recorded” stand apart in the source; their conditions may differ. Like-named read-outs stand apart in the source and are kept apart here. No end group written: not given here.

Legend:
Sprague Dowley rats [1] = experiment: Openfield test; assay type: in vivo, rat; settings: for time in the center of the openfield (thigmotaxis): cacotheline 10 μM
Procedure: A. Animals: All procedures involving animals were in accordance to NIH guidelines and with approval of the bioethical committee of the Universidad Andrés Bello. Sprague Dowley rats (˜60 d old, ˜250 g) were caged individually at 22° C., 12/12 h light/dark cycle. The rats remained in their home box throughout the study, and were removed only briefly for drug microinfusions. B. Drugs: For intra hippocampal microinjections Gap19 ([…] (SEQ ID NO: 3), LifeTein, South Plainfield, N.J., USA, >90% purity) was dissolved in PBS to yield a final solution of 100 μM and cacotheline was dissolved in sterile saline to a final concentration of 10 μM. For intravenous injections, cacotheline was dissolved to a final concentration of 10 μM in the blood stream, assuming circulating blood as 7% of body weight. Cacotheline was injected into the caudal vein under 4% isofluorane gas anesthesia. In a control group of rats sterile saline injection of equal volume was injected. C. Dye uptake: Gap junction permeability was determined at room temperature using the scrape-loading/dye transfer (SL/DT) technique, Hela cells were incubated with Carboxy-fluorescin (1 mg/ml) in the same Ca2+ free HEPES-buffered salt solution as above, then the test compound was added, followed byscrape-loading, which was performed with a razor blade. After 3 minutes the cells are washed with HEPES-buffered salt solution and mounted in Fluoromount and examined by epifluorescence. D. Apparatus: All behavioral essays were performed in an openfield made of Plexiglas (60 cm×40 cm) or a dark/light exploration box (70×40 cm; light compartment 40×40 cm, dark compartment 30×40 cm), illuminated by a white light bulb. A video camera was mounted at the top of the chamber to allow digital recording throughout the experiments. E. Surgery and histology: Under ketamine/xylazine anesthesia ([…], respectively), rats were stereotaxically implanted with bilateral 22-gauge stainless steel cannulas aimed 1.0 mm above the ventral hippocampus (5.0 mm posterior to Bregma, 5.0 mm lateral to the midline, and 6.0 mm ventral to the skull surface (Paxinos, G., Watson, C. (1998). The Rat Brain in Stereotaxic Coordinates; Press A, editor, San Diego). The cannulas were fixed with acrylic dental cement and secured by 4 skull screws. A stylus was placed inside the guide cannula to prevent clogging. Rats were given at least 7 days to recover before experimental procedures began.
In all experiments, stylus was removed from the guide cannula, and a 28-gauge injection cannula was inserted through the guide cannula, extending 1.0 mm beyond its tip into the ventral hippocampus. Drugs were infused slowly via the injection cannula, connected by PE20 tubing to Hamilton microsyringes driven by a microinfusion pump. Infusions were of 0.25 μl per hemisphere at a rate of 0.32 μl/min. Following drug infusion, injecting cannulaes were left in place for 10 minutes to allow drug diffusion away from the cannula tip. At the end of all experiments, animals were anesthetized as above and perfused intracardially with saline, 4% buffered paraformaldehyde. Brains were extracted and postfixed in 30% sucrose until density equaled that of sucrose. […] Animals with histological lesions beyond the size of the cannula tip and guide cannula diameter were excluded from the analysis.
F. Behavioral procedures: To assess the effects of TAT-Gap19 on locomotor activity, entire body movements were measured in the openfield and counted as the number of crossings (transitions) between virtual square subdivisions of 10 cm^2 measured offline from digital video recordings. Measures of anxiety included thigmotaxis, rearing activity in the openfield. Transitions between light and dark compartments, number of times the animal peaked from the dark compartment into the lit compartment, and time spent in the lit compartment were measured in the Dark/light box paradigm^(62, 63). G. Data Analysis: Data were expressed as Mean+SD. […]

Cx30 hemichannels = target: T1, Cx30 hemichannels (Homo sapiens, UniProt O95452); experiment: EthBr dye uptake in Cx30 transfected Hela cells; assay type: cell-based
T1 construct: expressed in transfected cells; host or cells: HeLa
Procedure: For visualization of dye uptake by captured images, Cx30 transfected Hela cells were exposed to 25 uM EthBr (Invitrogen, Eugene, Oreg.) for 5 min at room temperature. Then, cells were incubated with either HEPES-buffered salt solution containing 140 mM NaCl, 4 mM KCl, 1 mM CaCl2, 1 mM MgCl2, 5 mM glucose, […] or in calcium free HEPES-buffered salt solution (140 mM NaCl, 4 mM KCl, 5 mM glucose, […]). Then the test compound was added to both solutions followed by EthBr dissolved to a final 25 uM concentration. Cells are washed and mounted in Fluoromount and examined by epifluorescence.

Cx30 gap junctions = experiment: Scrape-loading/dye transfer, Cx30 gap junctions in Hela cells; assay type: cell-based
Procedure: (§1) Gap junction permeability was determined at room temperature using the scrape-loading/dye transfer (SL/DT) technique, Hela cells were incubated with Carboxy-fluorescin (1 mg/ml) in the same Ca2+ free HEPES-buffered salt solution as above. Then the test compound was added. Scrape-loading was then performed with a razor blade. After 3 minutes the cells are washed with HEPES-buffered salt solution and mounted in Fluoromount and examined by epifluorescence.

Cx43 gap junctions = target: T2, Cx43 gap junctions (Homo sapiens, UniProt P17302); experiment: Scrape-loading/dye transfer in Cx43 transfected Hela cells; assay type: cell-based
T2 construct: expressed in transfected cells; host or cells: HeLa
Procedure: as §1, with “above, then” for “above. Then”, “added, followed by scrape-loading, which” for “added. Scrape-loading”, “was” for “was then”
A. Animals: All procedures involving animals were in accordance to NIH guidelines and with approval of the bioethical committee of the Universidad Andrés Bello. Sprague Dowley rats (˜60 d old, ˜250 g) were caged individually at 22° C., 12/12 h light/dark cycle. The rats remained in their home box throughout the study, and were removed only briefly for drug microinfusions. B. Drugs: For intra hippocampal microinjections Gap19 ([…] (SEQ ID NO: 3), LifeTein, South Plainfield, N.J., USA, >90% purity) was dissolved in PBS to yield a final solution of 100 μM and cacotheline was dissolved in sterile saline to a final concentration of 10 μM. For intravenous injections, cacotheline was dissolved to a final concentration of 10 μM in the blood stream, assuming circulating blood as 7% of body weight. Cacotheline was injected into the caudal vein under 4% isofluorane gas anesthesia. In a control group of rats sterile saline injection of equal volume was injected. C. Dye uptake: Gap junction permeability was determined at room temperature using the scrape-loading/dye transfer (SL/DT) technique, Hela cells were incubated with Carboxy-fluorescin (1 mg/ml) in the same Ca2+ free HEPES-buffered salt solution as above, then the test compound was added, followed byscrape-loading, which was performed with a razor blade. After 3 minutes the cells are washed with HEPES-buffered salt solution and mounted in Fluoromount and examined by epifluorescence. […]

Sprague Dowley rats [2] = experiment: Contextual fear conditioning after intravenous injection; assay type: in vivo, rat; settings: 10 minutes before training, 10 μM in the blood stream
Procedure: A. Animals: All procedures involving animals were in accordance to NIH guidelines. Sprague Dowley rats (˜60 d old, ˜250 g) were caged individually at 22° C., 12/12 h light/dark cycle. The rats remained in their home box throughout the study, and were removed only briefly for drug microinfusions. B. Drugs: Cacotheline (Pharmeks Ltd. Moscow, Russia) was dissolved in sterile saline to yield a final solution of 10 μM in the blood stream. As a control, only sterile saline injection of equal volume was used. Cacotheline was injected into the caudal vein under 4% isofluorane anesthesia. C. Apparatus: All behavioral essays were performed in a sound attenuating cubicle. Conditioning and testing were conducted in the same chamber. For conditioning, rats were placed in a Plexiglas chamber with a metal grid floor (40 cm×40 cm×40 cm). The chamber was dimly illuminated by a red light. A video camera was mounted at the top of each chamber to allow digital recording throughout the experiments. D. Behavioral procedures: The conditioning is based on the animal learning that a previously neutral stimulus (a conditioned stimulus, CS; e.g. a context) becomes predictive of a stressful stimulus (unconditioned stimulus, US; e.g. footshock). […] During the test, total seconds of freezing (immobility) were calculated for each rat when exposed to the conditioned context for 5 minutes without the footshock. […]

rats = experiment: Forced swim test (FST); assay type: in vivo, rat; settings: intravenous, 10 μM in the blood stream, 10 minutes before the test
Procedure: A. Methods: To assess depressive-like symptoms the forced swim test (FST) was employed, which was similar to that described elsewhere^(65). On training, rats were individually placed in a transparent Plexiglas cylinder (30 cm diameter×60 cm height) filled with water at 25±2° C. for 15 minutes. 24 h later, the animals were placed again in the cylinder for 5 minutes as described before. After initial vigorous swimming activity, swimming attempts normally cease and the animal adopts a characteristic immobile floating posture. Rats were scored for time to reach immobility and total immobility time by a trained observer from offline video recordings. Immobility was defined as the cessation of limb movements. B. Drugs: Cacotheline was dissolved to a final concentration of 10 μM into the blood stream, assuming circulating blood as 7% of body weight. Cacotheline was injected into the caudal vein under 4% isofluorane gas anesthesia 10 minutes before the behavioural test. In a control group of rats sterile saline injection of equal volume was injected. C. […] D. Discussion: A compound capable of increasing Cx43 hemichannel activity was able to decrease immobility in the FST, indication antidepressant effects. […] This implies that Cx43 modulators are useful to treat depression and other mood disorders.

[3] = microinjected into ventral hippocampus
[4] = microinjected into ventral hippocampus, peptides 100 μM

T2 sequence (P17302 whole entry): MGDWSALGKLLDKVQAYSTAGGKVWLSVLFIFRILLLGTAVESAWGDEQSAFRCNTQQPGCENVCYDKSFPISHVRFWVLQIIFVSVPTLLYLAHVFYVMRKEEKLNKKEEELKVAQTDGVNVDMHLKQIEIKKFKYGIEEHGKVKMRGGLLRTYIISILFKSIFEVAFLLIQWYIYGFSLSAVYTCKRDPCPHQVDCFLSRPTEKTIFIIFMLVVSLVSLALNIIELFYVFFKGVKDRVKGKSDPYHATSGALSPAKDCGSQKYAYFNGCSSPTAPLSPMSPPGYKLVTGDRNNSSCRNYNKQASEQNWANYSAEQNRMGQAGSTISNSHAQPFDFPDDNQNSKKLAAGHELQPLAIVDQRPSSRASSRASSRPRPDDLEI
T1 sequence (O95452 whole entry): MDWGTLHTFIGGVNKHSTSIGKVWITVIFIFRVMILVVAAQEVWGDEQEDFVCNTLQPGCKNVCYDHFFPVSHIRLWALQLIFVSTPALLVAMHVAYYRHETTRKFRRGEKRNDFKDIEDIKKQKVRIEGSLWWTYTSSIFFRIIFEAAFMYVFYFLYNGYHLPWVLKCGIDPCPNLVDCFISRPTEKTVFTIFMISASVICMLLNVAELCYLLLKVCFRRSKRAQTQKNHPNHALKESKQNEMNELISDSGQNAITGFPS

Compound | effect on anxiety (Sprague Dowley rats [1]; [3]) | time in the center of the openfield (thigmotaxis) (Sprague Dowley rats [1]; [4]) | locomotion (transitions) in the openfield (Sprague Dowley rats [1]; [4]) | Cx30 hemichannel activity (Cx30 hemichannels) | Cx30 gap junctional communication (Cx30 gap junctions) | Cx43 gap junctional coupling (Cx43 gap junctions) | Cx43 gap junctional coupling (Cx43 gap junctions; listed as cacotheline) | freezing to conditioned context 24 h after training (Sprague Dowley rats [2]) | freezing to conditioned context 24 h after training (Sprague Dowley rats [2]; listed as cacotheline) | locomotion (transitions) in the openfield (Sprague Dowley rats [1]; intravenous, 10 μM in the blood stream) | time in the center of the openfield (thigmotaxis) (Sprague Dowley rats [1]; microinjected into ventral hippocampus, peptides 100 μM, listed as cacotheline) | immobility in the FST (rats) | locomotion (transitions) in the openfield (Sprague Dowley rats [1]; microinjected into ventral hippocampus, peptides 100 μM, listed as Pnx1Li)
YGRKKRRQRRRDAPALYSNLSKKRG [TAT-Cx30L4] | anxiolytic effects | statistically significant increase in the time the animals spent in the center | tendency to increase locomotion | increase hemichannel activity | unaffected |  |  |  |  |  |  |  | 
O=C(O)C[C@@H]1OCC=C2CN3CC[C@]45C6=CC(=O)C(=O)C([N+](=O)[O-])=C6N[C@H]4[C@H]1[C@H]2C[C@H]35 [Cacotheline, 2,3-Dihydro-4-nitro-2,3-dioxo-9,10-secostrychnidin-10-oic acid] | anxiolytic effects | significant increase in the time spent in the center of the openfield |  |  |  | had no effects on Cx43 gap junctional coupling; also recorded: without affecting Cx43 gap junctions | no effects on gap junctional coupling | increased freezing | increase freezing | increase in locomotion at the openfield; also recorded: increase in total locomotion | increase in time at the center of the openfield | significant decrease in immobility time | 
YGRKKRRQRRRCYDHFFPVSHIR [TAT-Cx30] | anxiolytic effects | increase in time at the center of the openfield | increase in locomotion at the openfield | increase in Cx30 hemichannel activity |  | had no effects on Cx43 gap junctional coupling |  |  |  |  |  |  | 
YGRKKRRQRRRRDLDLRDGP [TAT-Pnx1L5, pannexin 1 mimetic peptide] | anxiolytic effects | increasing significantly the time in the center of the openfield | increased locomotion at the openfield |  |  |  |  |  |  |  |  |  | increasing significantly
WRQAAFVDSY [Pnx1] | anxiolytic effects | increase in time at the center of the openfield; also recorded: increasing significantly the time in the center of the openfield | increasing significantly |  |  |  |  |  |  |  |  |  | 
